This assay concerns the target T1, Solute carrier family 2, facilitated glucose transporter member 4 (Homo sapiens, UniProt P14672).
T1 sequence (P14672 whole entry): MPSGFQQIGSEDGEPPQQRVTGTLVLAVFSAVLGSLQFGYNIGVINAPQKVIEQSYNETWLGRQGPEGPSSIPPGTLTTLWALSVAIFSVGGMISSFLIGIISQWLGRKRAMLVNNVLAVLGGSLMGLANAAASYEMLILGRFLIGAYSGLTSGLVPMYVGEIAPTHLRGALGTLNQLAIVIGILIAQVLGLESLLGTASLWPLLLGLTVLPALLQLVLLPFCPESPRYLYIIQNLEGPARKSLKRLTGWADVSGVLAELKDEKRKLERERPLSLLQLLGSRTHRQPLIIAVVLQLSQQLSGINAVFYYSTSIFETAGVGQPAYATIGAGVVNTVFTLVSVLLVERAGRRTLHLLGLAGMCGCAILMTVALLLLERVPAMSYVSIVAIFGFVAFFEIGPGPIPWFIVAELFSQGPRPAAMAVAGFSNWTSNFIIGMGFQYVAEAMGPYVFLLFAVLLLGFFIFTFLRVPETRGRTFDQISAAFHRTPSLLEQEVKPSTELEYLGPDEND
The assay is described as follows: Inhibition of the Glucose Transporter (GLUT4, SLC2A4) as assessed by a FRET based flow cytometry assay using a genetically-encoded biosensor for measuring free glucose (FLII12Pglu-700uDelta6) in HEK293 JumpIN TRex SLC2A4 WT-OE cells (PubChem AID: 1794828). In kind it is functional, cell-based.

Each structure is given as a SMILES string.

As usually defined, the IC50 is the concentration needed to halve the response being measured. Higher therefore signals weaker potency. For `O=C(Oc1cccc(F)c1OC(=O)c1cccc(O)c1)c1cccc(O)c1`, the IC50 amounted to 2.5 µM. The same measure, in the same setting: under `Cc1c(NC(=O)c2cc(C(N)=O)nc3cc(F)ccc23)c(C(F)(F)F)nn1Cc1ccc(C#N)cc1` [BAY-876] stands 5.5 µM. A word on the EC50: it is the midpoint of the concentration-response curve. `OC[C@H]1OC(O)[C@H](O)[C@@H](O)[C@@H]1O` (stereo partly drawn) [DEXTROSE] had a half-maximal effective concentration (EC50) of 860 µM.

The values are drawn from ChEMBL document CHEMBL5209579, “Flow cytometry transport assay for SLC2A4 using HEK293 JumpIN TRex SLC2A4 WT-OE cells” (2022).
